35 molecules from patent publication US8815882B2, “Pyrazole aminopyrimidine derivatives as LRRK2 modulators” (Genentech, Inc., priority 2010, dated 2014) can be followed below.

pKi: −log10 of the molar value.

The target in one experiment is T1, LRRK2 (Homo sapiens, UniProt Q5S007, G2019S).
T1 construct: purchased Invitrogen PV4882 (lot 567054A)
T1 sequence (Q5S007 whole entry G2019S): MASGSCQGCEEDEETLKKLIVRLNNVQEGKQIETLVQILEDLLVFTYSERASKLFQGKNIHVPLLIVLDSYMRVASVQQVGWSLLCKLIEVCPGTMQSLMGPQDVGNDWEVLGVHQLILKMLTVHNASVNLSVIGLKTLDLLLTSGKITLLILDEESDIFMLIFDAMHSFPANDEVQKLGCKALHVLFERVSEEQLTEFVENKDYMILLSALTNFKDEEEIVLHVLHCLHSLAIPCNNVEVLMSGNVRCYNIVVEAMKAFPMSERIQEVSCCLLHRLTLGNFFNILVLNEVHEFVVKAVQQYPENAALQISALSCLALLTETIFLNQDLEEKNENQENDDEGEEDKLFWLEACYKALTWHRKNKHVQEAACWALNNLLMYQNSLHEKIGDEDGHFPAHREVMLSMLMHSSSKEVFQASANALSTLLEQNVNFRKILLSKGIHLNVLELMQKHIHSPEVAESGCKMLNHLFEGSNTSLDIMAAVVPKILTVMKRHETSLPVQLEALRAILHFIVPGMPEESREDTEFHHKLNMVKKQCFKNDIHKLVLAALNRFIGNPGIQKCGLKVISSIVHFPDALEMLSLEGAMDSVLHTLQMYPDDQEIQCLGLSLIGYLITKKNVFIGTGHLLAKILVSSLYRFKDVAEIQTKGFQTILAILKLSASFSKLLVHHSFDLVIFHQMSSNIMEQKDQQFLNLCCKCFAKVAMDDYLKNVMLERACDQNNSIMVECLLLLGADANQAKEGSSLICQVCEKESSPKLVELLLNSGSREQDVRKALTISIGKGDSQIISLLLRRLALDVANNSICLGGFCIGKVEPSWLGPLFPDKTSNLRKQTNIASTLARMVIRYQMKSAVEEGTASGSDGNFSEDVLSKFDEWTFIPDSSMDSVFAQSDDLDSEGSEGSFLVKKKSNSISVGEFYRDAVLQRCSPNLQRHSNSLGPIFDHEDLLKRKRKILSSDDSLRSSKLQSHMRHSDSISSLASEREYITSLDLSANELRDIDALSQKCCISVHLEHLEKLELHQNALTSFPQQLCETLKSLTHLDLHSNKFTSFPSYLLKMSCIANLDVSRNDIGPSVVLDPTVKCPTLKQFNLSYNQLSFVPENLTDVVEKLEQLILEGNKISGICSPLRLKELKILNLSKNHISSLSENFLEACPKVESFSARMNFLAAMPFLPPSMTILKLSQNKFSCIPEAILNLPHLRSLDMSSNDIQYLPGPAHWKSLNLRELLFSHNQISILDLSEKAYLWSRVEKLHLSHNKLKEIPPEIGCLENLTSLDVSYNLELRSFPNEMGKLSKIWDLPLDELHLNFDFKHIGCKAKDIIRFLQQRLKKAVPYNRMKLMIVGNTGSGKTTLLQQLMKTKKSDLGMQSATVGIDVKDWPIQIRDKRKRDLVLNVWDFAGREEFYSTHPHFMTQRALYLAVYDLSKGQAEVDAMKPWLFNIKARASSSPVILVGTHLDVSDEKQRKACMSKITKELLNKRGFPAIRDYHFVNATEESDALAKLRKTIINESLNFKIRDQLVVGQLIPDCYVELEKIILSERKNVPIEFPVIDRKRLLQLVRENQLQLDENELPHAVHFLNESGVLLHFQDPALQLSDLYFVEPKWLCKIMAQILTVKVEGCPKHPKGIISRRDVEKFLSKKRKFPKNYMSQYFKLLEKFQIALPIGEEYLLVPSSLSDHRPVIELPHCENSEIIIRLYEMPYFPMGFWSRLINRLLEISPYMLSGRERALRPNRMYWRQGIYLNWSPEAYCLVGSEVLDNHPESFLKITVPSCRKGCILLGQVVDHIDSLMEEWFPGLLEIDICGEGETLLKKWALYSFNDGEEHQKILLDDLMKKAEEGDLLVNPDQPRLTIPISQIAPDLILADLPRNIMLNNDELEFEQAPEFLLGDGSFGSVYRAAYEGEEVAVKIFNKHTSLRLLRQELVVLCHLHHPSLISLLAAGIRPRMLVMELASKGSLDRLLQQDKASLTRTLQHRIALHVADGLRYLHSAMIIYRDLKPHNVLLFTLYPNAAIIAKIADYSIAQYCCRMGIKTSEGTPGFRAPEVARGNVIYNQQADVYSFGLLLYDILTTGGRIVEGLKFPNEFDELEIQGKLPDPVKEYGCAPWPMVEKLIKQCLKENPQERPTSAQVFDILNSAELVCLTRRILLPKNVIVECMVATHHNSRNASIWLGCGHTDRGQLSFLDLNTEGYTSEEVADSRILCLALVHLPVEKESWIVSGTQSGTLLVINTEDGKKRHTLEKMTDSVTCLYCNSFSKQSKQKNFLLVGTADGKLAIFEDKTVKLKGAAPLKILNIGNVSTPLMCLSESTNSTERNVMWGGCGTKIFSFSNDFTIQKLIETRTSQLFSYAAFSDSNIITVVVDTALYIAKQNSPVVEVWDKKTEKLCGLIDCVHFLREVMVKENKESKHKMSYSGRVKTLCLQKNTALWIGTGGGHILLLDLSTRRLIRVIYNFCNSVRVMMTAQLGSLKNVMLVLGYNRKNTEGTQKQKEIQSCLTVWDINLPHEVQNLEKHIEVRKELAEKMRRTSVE
As to the kind of experiment: In Vitro LRRK2 Assay (LabChip 3000, fluorescently-labeled peptide substrate, ATP). Type of experiment: biochemical. As to conditions: Table 9; LRRK2 Ki (micromolar); read-out: LRRK2 Ki (KI). The procedure, abridged:
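LRRK2, fluorescent peptide substrate (diluted to 4 μM before mixing), ATP and compound were incubated 2 h in the dark, then stopped. Phosphorylated and unphosphorylated peptide were separated by capillary electrophoresis and quantified by fluorescence. Ki was fitted with a tight-binding equation including enzyme concentration, S and Km; IC50 or percent inhibition were also reported.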
In general, pKi refers to −log10 of the Ki, conventionally taken in molar units. Consider `CNc1nc(Nc2cnn(-c3cc(F)cc(F)c3)c2C)ncc1C#N` [Example 390, 2-[1-(3,5-Difluoro-phenyl)-5-methyl-1H-pyrazol-4-ylamino]-4-methylamino-pyrimidine-5-carbonitrile], for which the negative-log Ki (pKi) was 6.62.
On the same count and under the same terms, the same measure for `CCNc1nc(Nc2cn(C3CCOCC3)nc2C)ncc1C#N` [Example 372, 4-(ethylamino)-2-(3-methyl-1-(tetrahydro-2H-pyran-4-yl)-1H-pyrazol-4-ylamino) pyrimidine-5-carbonitrile]: 7.62; for `CNc1nc(Nc2cn(CC(F)(F)F)nc2C)ncc1C#N` [Example 359, 2-(3-methyl-1-(2,2,2-trifluoroethyl)-1H-pyrazol-4-ylamino)-4-(methylamino) pyrimidine-5-carbonitrile]: 7.28; for `CNc1nc(Nc2cn(C3COC3)nc2C)ncc1C#N` [Example 389, 4-Methylamino-2-(3-methyl-1-oxetan-3-yl-1H-pyrazol-4-ylamino)-pyrimidine-5-carbonitrile]: 7.43.
Consider `CNc1nc(Nc2cn(-c3ccc(Cl)cc3)nc2C)ncc1C#N` [Example 368, 2-(1-(4-chlorophenyl)-3-methyl-1H-pyrazol-4-ylamino)-4-(methylamino) pyrimidine-5-carbonitrile], for which the negative-log Ki (pKi) was 7.09.

The experiment is the same for the next values; noted with them: Table 10; LRRK2 Ki (micromolar); read-out: LRRK2 Ki (KI).
As to `CNc1nc(Nc2cnn(C(C)(C)C(=O)OC)c2C)ncc1C(F)(F)F` [Example 409, methyl 2-methyl-2-(5-methyl-4-(4-(methylamino)-5-(trifluoromethyl)pyrimidin-2-ylamino)-1H-pyrazol-1-yl)propanoate], the pKi was 8.12.
Take `CNc1nc(Nc2cn(C(C)(C)C#N)nc2C2CC2)ncc1C(F)(F)F` [Example 419, 2-(3-cyclopropyl-4-(4-(methylamino)-5-(trifluoromethyl)pyrimidin-2-ylamino)-1H-pyrazol-1-yl)-2-methylpropanenitrile]: the pKi was 9.00.
On the same count and under the same terms, the same measure for `CNc1nc(Nc2cnn(C(C)(C)C(=O)NC(C)(C)C)c2C)ncc1C(F)(F)F` [Example 447, N-tert-Butyl-2-[5-methyl-4-(4-methylamino-5-trifluoromethyl-pyrimidin-2-ylamino)-pyrazol-1-yl]-isobutyramide]: 7.17; for `CCNC(=O)C(C)(C)n1ncc(Nc2ncc(C(F)(F)F)c(NC)n2)c1Cl` [Example 425, 2-(5-chloro-4-(4-(methylamino)-5-(trifluoromethyl)pyrimidin-2-ylamino)-1H-pyrazol-1-yl)-N-ethyl-2-methyl propanamide]: 7.45.
Consider `CNC(=O)C(C)(C)n1cc(Nc2ncc(C(F)(F)F)c(NC)n2)c(C)n1` [Example 432, N,2-dimethyl-2-(3-methyl-4-(4-(methylamino)-5-(trifluoromethyl)pyrimidin-2-ylamino)-1H-pyrazol-1-yl)propanamide], for which the negative-log Ki (pKi) was 7.74.
With `CCNc1nc(Nc2cn(C(C)(C)C(=O)NC)nc2C)ncc1C(F)(F)F` [Example 453, 2-[4-(4-Ethylamino-5-trifluoromethyl-pyrimidin-2-ylamino)-3-methyl-pyrazol-1-yl]-N-methyl-isobutyramide], the negative logarithm of the Ki (pKi) was 8.04.
Same read-out and setting: next, `CNc1nc(Nc2cn(C(C)(C)C(=O)NCC3CC3)nc2C)ncc1C(F)(F)F` [Example 427, N-(cyclopropylmethyl)-2-methyl-2-(3-methyl-4-(4-(methylamino)-5-(trifluoromethyl)pyrimidin-2-ylamino)-1H-pyrazol-1-yl)propanamide]: 7.28; `CNc1nc(Nc2cn([C@H](C)C(=O)N(C)C)nc2C)ncc1C(F)(F)F` [Example 404, (R)-N,N-dimethyl-2-(3-methyl-4-(4-(methylamino)-5-(trifluoromethyl)pyrimidin-2-ylamino)-1H-pyrazol-1-yl)propanamide]: 7.74.

The experiment is the same for the next values; noted with them: read-out: LRRK2 Ki (KI), Table 7.
For the molecule `CNc1nc(Nc2ccn(C(C)C)n2)ncc1C(F)(F)F` [Example 57, N^2-(1-isopropyl-1H-pyrazol-3-yl)-N4-methyl-5-(trifluoromethyl) pyrimidine-2,4-diamine], the pKi was 8.60.
As for `COc1nc(Nc2cnn(C)c2Cl)ncc1Cl` [Example 21, 5-Chloro-N-(5-chloro-1-methyl-1H-pyrazol-4-yl)-4-methoxy-pyrimidin-2-amine], the negative-log Ki (pKi) was 7.70.
`CNc1nc(Nc2cnn(CC(F)(F)F)c2C)ncc1C(F)(F)F` [Example 58, N^4-methyl-N^2-(5-methyl-1-(2,2,2-trifluoroethyl)-1H-pyrazol-4-yl)-5-(trifluoromethyl) pyrimidine-2,4-diamine]: the negative-log Ki (pKi) is 8.44.
With `CCNc1nc(Nc2cn(C3CCN(CC4OCCO4)CC3)nc2C)ncc1C(F)(F)F` [Example 88, N^2-[1-(1-[1,3]Dioxolan-2-ylmethyl-piperidin-4-yl)-3-methyl-1H-pyrazol-4-yl]-N^4-ethyl-5-trifluoromethyl-pyrimidine-2,4-diamine], the pKi was 8.03.
As for `CNc1nc(Nc2cn(C3CCOCC3)nc2C)ncc1C(F)(F)F` [Example 32, N^4-methyl-N^2-(3-methyl-1-(tetrahydro-2H-pyran-4-yl)-1H-pyrazol-4-yl)-5-(trifluoromethyl) pyrimidine-2,4-diamine], the pKi is 7.62.

Staying with this experiment, now noted: read-out: LRRK2 Ki (KI), Table 8.
Consider `CNc1nc(Nc2[nH]ncc2C)ncc1C(F)(F)F` [Example 206, N4-methyl-N2-(4-methyl-1H-pyrazol-5-yl)-5-(trifluoromethyl) pyrimidine-2,4-diamine], for which the pKi was 6.63.
As for `CNc1nc(Nc2cnn(Cc3cccc(C)n3)c2C)ncc1C(F)(F)F` [Example 314, N4-Methyl-N2-[5-methyl-1-(6-methyl-pyridin-2-ylmethyl)-1H-pyrazol-4-yl]-5-trifluoromethyl-pyrimidine-2,4-diamine], the pKi was 8.82.
Still for that read-out and setting: the same measure for `CNc1nc(Nc2cnn(C3CN(C(C)C)C3)c2C)ncc1C(F)(F)F` [Example 278, N2-[1-(1-Isopropyl-azetidin-3-yl)-5-methyl-1H-pyrazol-4-yl]-N4-methyl-5-trifluoromethyl-pyrimidine-2,4-diamine]: 8.92; for `CCC(C)S(=O)(=O)n1ncc(Nc2ncc(C(F)(F)F)c(NC)n2)c1C` (centres unmarked) [Example 219, N2-(1-(sec-butylsulfonyl)-5-methyl-1H-pyrazol-4-yl)-N4-methyl-5-(trifluoromethyl) pyrimidine-2,4-diamine]: 8.17.
`CNc1nc(Nc2cn(Cc3ncccn3)nc2C)ncc1C(F)(F)F` [Example 304, N4-Methyl-N2-(3-methyl-1-pyrimidin-2-ylmethyl-1H-pyrazol-4-yl)-5-trifluoromethyl-pyrimidine-2,4-diamine]: the negative-log Ki (pKi) is 8.29.
On the same count and under the same terms, the same measure for `Cc1nn(S(C)(=O)=O)cc1Nc1ncc(C(F)(F)F)c(NC2CC2)n1` [Example 300, N4-Cyclopropyl-N2-(1-methanesulfonyl-3-methyl-1H-pyrazol-4-yl)-5-trifluoromethyl-pyrimidine-2,4-diamine]: 9.40.
For the molecule `CNc1nc(Nc2cn(C(F)F)nc2C)ncc1C(F)(F)F` [Example 105, N2-(1-(difluoromethyl)-3-methyl-1H-pyrazol-4-yl)-N4-methyl-5-(trifluoromethyl) pyrimidine-2,4-diamine], the negative logarithm of the Ki (pKi) was 8.26.
For `CNc1nc(Nc2cn([C@@H]3CCN(C4COC4)C3)nc2C)ncc1C(F)(F)F` [Example 204, (R)-N4-methyl-N2-(3-methyl-1-(1-(oxetan-3-yl)pyrrolidin-3-yl)-1H-pyrazol-4-yl)-5-(trifluoromethyl) pyrimidine-2,4-diamine], the negative-log Ki (pKi) was 7.54.
The same measure, in the same setting: the same measure for `CNc1nc(Nc2cn(-c3ccccc3)nc2C)ncc1Br` [Example 109, 5-bromo-N4-methyl-N2-(3-methyl-1-phenyl-1H-pyrazol-4-yl)pyrimidine-2,4-diamine]: 8.08; for `CNc1nc(Nc2cnn(C)c2C2CC2)ncc1C(F)(F)F` [Example 178, N2-(5-cyclopropyl-1-methyl-1H-pyrazol-4-yl)-N4-methyl-5-(trifluoromethyl) pyrimidine-2,4-diamine]: 7.92; for `CNc1nc(Nc2cn(C3CCCOC3)nc2C)ncc1C(F)(F)F` (centres unmarked) [Example 230, N4-methyl-N2-(3-methyl-1-(tetrahydro-2H-pyran-3-yl)-1H-pyrazol-4-yl)-5-(trifluoromethyl) pyrimidine-2,4-diamine]: 8.02.
For the molecule `CNc1nc(Nc2cn(S(=O)(=O)C3CC3)nc2C)ncc1C(F)(F)F` [Example 170, N2-(1-(cyclopropyl-sulfonyl)-3-methyl-1H-pyrazol-4-yl)-N4-methyl-5-(trifluoromethyl) pyrimidine-2,4-diamine], the pKi was 8.70.
Same read-out and setting: the same measure for `CNc1nc(Nc2cnn(C3CCCC3O)c2C)ncc1C(F)(F)F` (centres unmarked) [Example 334, 2-[5-Methyl-4-(4-methylamino-5-trifluoromethyl-pyrimidin-2-ylamino)-pyrazol-1-yl]-cyclopentanol]: 8.20; for `CNc1nc(Nc2cnn(C(C)(C)c3cnn(C)c3)c2C)ncc1C(F)(F)F` [Example 341, N4-methyl-N2-(5-methyl-1-(2-(1-methyl-1H-pyrazol-4-yl)propan-2-yl)-1H-pyrazol-4-yl)-5-(trifluoromethyl) pyrimidine-2,4-diamine]: 8.21.
As for `CNc1nc(Nc2cn(Cc3ccccn3)nc2C)ncc1C(F)(F)F` [Example 213, N4-methyl-N2-(3-methyl-1-(pyridin-2-ylmethyl)-1H-pyrazol-4-yl)-5-(trifluoromethyl) pyrimidine-2,4-diamine], the pKi is 8.54.
With `CNc1nc(Nc2cnn(C3CCN(CCOC)CC3)c2C)ncc1C(F)(F)F` [Example 239, N2-(1-(1-(2-methoxyethyl)piperidin-4-yl)-5-methyl-1H-pyrazol-4-yl)-N4-methyl-5-(trifluoromethyl) pyrimidine-2,4-diamine], the pKi was 8.22.

Staying with this experiment, now noted: read-out: LRRK2 Ki given in the example.
For the molecule `CNc1nc(Nc2cnn(C)c2C)ncc1Br` [Example 89, 5-Bromo-N^2-(1,5-dimethyl-1H-pyrazol-4-yl)-N^4-methylpyrimidine-2,4-diamine], the pKi was 7.77.
